Test results as given in the supplement of paper PMC11451515.

Test system: P12-Ichikawa
Assay: cell viability relative to DMSO control; higher = less cytotoxic
Settings: 48 h
Outline: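 Three leukemia lines were tested: NOMO1 and SEM at 500 cells/well and P12-Ichikawa at 1000 cells/well. Each was adapted for at least four passages in each medium and seeded in 5 μl in 1536-well plates, and library compounds in DMSO were pin-dosed from 47 μM to 0.79 nM in 11 threefold steps. After 48 h at 37°C, CellTiter-Glo One luminescence was read. Viability is a percentage relative to DMSO wells on each plate, with cell-free wells as background.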

[1] = HPLM + 10% dialyzed FBS, 0.000781 µM
[2] = HPLM + 10% dialyzed FBS, 0.00234 µM
[3] = HPLM + 10% dialyzed FBS, 0.00702 µM
[4] = HPLM + 10% dialyzed FBS, 0.0211 µM
[5] = HPLM + 10% dialyzed FBS, 0.0632 µM
[6] = HPLM + 10% dialyzed FBS, 0.19 µM
[7] = HPLM + 10% dialyzed FBS, 0.569 µM
[8] = HPLM + 10% dialyzed FBS, 1.71 µM
[9] = HPLM + 10% dialyzed FBS, 5.12 µM
[10] = HPLM + 10% dialyzed FBS, 15.4 µM
[11] = HPLM + 10% dialyzed FBS, 46.1 µM
[12] = RPMI 5 mM glucose + 10% FBS, 0.000781 µM
[13] = RPMI 5 mM glucose + 10% FBS, 0.00234 µM
[14] = RPMI 5 mM glucose + 10% FBS, 0.00702 µM
[15] = RPMI 5 mM glucose + 10% FBS, 0.0211 µM
[16] = RPMI 5 mM glucose + 10% FBS, 0.0632 µM
[17] = RPMI 5 mM glucose + 10% FBS, 0.19 µM
[18] = RPMI 5 mM glucose + 10% FBS, 0.569 µM
[19] = RPMI 5 mM glucose + 10% FBS, 1.71 µM
[20] = RPMI 5 mM glucose + 10% FBS, 5.12 µM
[21] = RPMI 5 mM glucose + 10% FBS, 15.4 µM
[22] = RPMI 5 mM glucose + 10% FBS, 46.1 µM
[23] = RPMI 5 mM glucose + 10% dialyzed FBS, 0.000781 µM
[24] = RPMI 5 mM glucose + 10% dialyzed FBS, 0.00234 µM
[25] = RPMI 5 mM glucose + 10% dialyzed FBS, 0.00702 µM
[26] = RPMI 5 mM glucose + 10% dialyzed FBS, 0.0211 µM
[27] = RPMI 5 mM glucose + 10% dialyzed FBS, 0.0632 µM
[28] = RPMI 5 mM glucose + 10% dialyzed FBS, 0.19 µM
[29] = RPMI 5 mM glucose + 10% dialyzed FBS, 0.569 µM
[30] = RPMI 5 mM glucose + 10% dialyzed FBS, 1.71 µM
[31] = RPMI 5 mM glucose + 10% dialyzed FBS, 5.12 µM
[32] = RPMI 5 mM glucose + 10% dialyzed FBS, 15.4 µM
[33] = RPMI 5 mM glucose + 10% dialyzed FBS, 46.1 µM

Row | SMILES | cell viability [1] [%] | cell viability [2] [%] | cell viability [3] [%] | cell viability [4] [%] | cell viability [5] [%] | cell viability [6] [%] | cell viability [7] [%] | cell viability [8] [%] | cell viability [9] [%] | cell viability [10] [%] | cell viability [11] [%] | cell viability [12] [%] | cell viability [13] [%] | cell viability [14] [%] | cell viability [15] [%] | cell viability [16] [%] | cell viability [17] [%] | cell viability [18] [%] | cell viability [19] [%] | cell viability [20] [%] | cell viability [21] [%] | cell viability [22] [%] | cell viability [23] [%] | cell viability [24] [%] | cell viability [25] [%] | cell viability [26] [%] | cell viability [27] [%] | cell viability [28] [%] | cell viability [29] [%] | cell viability [30] [%] | cell viability [31] [%] | cell viability [32] [%] | cell viability [33] [%]
1 | CO[C@H]1CCC(O[C@H]2C[C@H]([C@]3(C)CC[C@]4(C[C@H](O)[C@@H](C)[C@@H]([C@@H](C)/C=C(\C)C(=O)[C@H](C)C[C@H](C)C(=O)[O-])O4)O3)O[C@]3(O[C@@H]([C@H]4O[C@@](O)(CO)[C@H](C)C[C@@H]4C)C[C@@H]3C)[C@@H]2C)O[C@@H]1C (stereo partly specified) | 120 | 124 | 119 | 118 | 111 | 106 | 87.3 | 80.2 | 48.8 | 35.7 | 21.5 | 124 | 113 | 106 | 113 | 111 | 103 | 99.7 | 73.1 | 44.2 | 28.9 | 22.7 | 118 | 120 | 109 | 119 | 120 | 119 | 108 | 88.8 | 39.7 | 25.3 | 27.1
2 | CCCCc1ccc2[nH]c(NC(=O)OC)nc2c1 | 104 | 106 | 105 | 101 | 85.9 | 22.9 | 18.4 | 27.1 | 13.8 | 16.2 | 11 | 99.7 | 112 | 101 | 106 | 92.6 | 17.6 | 16.8 | 26.7 | 24.1 | 22.2 | 16.5 | 92.4 | 98.4 | 103 | 102 | 97.5 | 31 | 25.7 | 37.7 | 27.9 | 29.3 | 23.1
3 | COc1cc(NCc2ccc3nc(N)nc(N)c3c2C)cc(OC)c1OC | 88.8 | 88.8 | 95.8 | 101 | 99 | 94.4 | 79.4 | 62.2 | 32.9 | 24.7 | 14.7 | 82.4 | 91.7 | 86.1 | 91.5 | 96.4 | 88.4 | 96.1 | 87.8 | 68.6 | 58.9 | 1.49 | 73.2 | 82.4 | 82.7 | 87.5 | 96.2 | 87.6 | 88.3 | 85.9 | 65.7 | 26.1 | 1.75
4 | C[C@@H]1[C@H]\2[C@H](O)[C@H]3[C@H](N(C)C)\C(=C(C(N)=O)/C(=O)[C@@]3(O)\C(=C2C(=O)C4=C(O)C=CC=C14)O)O | 114 | 122 | 125 | 127 | 129 | 126 | 131 | 129 | 127 | 126 | 113 |  |  |  |  |  |  |  |  |  |  |  |  |  |  |  |  |  |  |  |  |  | 
5 | COc1ccc(CCC(=O)c2c(O)cc(O[C@@H]3O[C@H](CO)[C@@H](O)[C@H](O)[C@H]3O[C@@H]3O[C@@H](C)[C@H](O)[C@@H](O)[C@H]3O)cc2O)cc1O | 115 | 117 | 116 | 110 | 119 | 116 | 117 | 113 | 107 | 107 | 38.8 |  |  |  |  |  |  |  |  |  |  |  | 105 | 115 | 118 | 116 | 108 | 114 | 111 | 113 | 107 | 106 | 105
6 | C=CC(=O)Nc1cc2c(Nc3ccc(F)c(Cl)c3)ncnc2cc1C#CC(C)(C)N1CCN(C)CC1 | 103 | 108 | 99.5 | 97.4 | 102 | 106 | 107 | 102 | 58.9 | 5.08 | 23.4 | 95.6 | 105 | 101 | 102 | 112 | 106 | 107 | 106 | 65.7 | 5.56 | 15.3 | 97.4 | 101 | 96.1 | 101 | 101 | 98.2 | 96.1 | 95.7 | 51 | 5.48 | 12.7
7 | Clc2cccc(Cl)c2\N=C1/NCCN1 | 109 | 115 | 71 | 123 | 116 | 123 | 120 | 120 | 116 | 122 | 121 | 109 | 120 | 73.8 | 121 | 127 | 130 | 137 | 126 | 135 | 126 | 123 | 95.8 | 115 | 80.2 | 113 | 115 | 121 | 120 | 120 | 112 | 124 | 124
8 | Nc1ccc(C(=O)c2cc3c(ccc4ccccc43)[nH]2)cc1 | 121 | 124 | 122 | 118 | 120 | 109 | 96.4 | 81.4 | 31.1 | 10.6 | 5.96 | 118 | 112 | 115 | 118 | 112 | 108 | 102 | 77.5 | 40.7 | 12.9 | 8.36 | 118 | 115 | 117 | 102 | 116 | 111 | 91 | 74.9 | 56.6 | 13.7 | 5.99
